Data from PMC10488193, “Evaluation of the Chemical Stability, Membrane Permeability and Antiproliferative Activity of Cyclic Diarylheptanoids from European Hornbeam (Carpinus betulus L.)” (International Journal of Molecular Sciences, 2023).
“And” between values parts separate entries of the source, which are not always exact repeats. Equal values may be shown once. “Also recorded” adds a separate entry of the source. Read-outs that look alike come from different tables or passages of the source. Marks after values point to notes of the source that are not given here.

Columns and labels:
[1] = Aqueous stability at biorelevant pH values, 37 °C (UHPLC-DAD); type: physicochemical; details: for half-life at 100 µM / degradation rate constant k: first-order; for half-life at 100 µM: read-out: half-life t1/2 (converted)
Experimental: (§1) For the analysis of the samples from the chemical stability as well as the PAMPA studies, sample concentrations were determined using our previously developed ultrahigh-performance liquid chromatography–diode array detection (UHPLC-DAD) method validated for linearity, precision and accuracy. Briefly, an ACQUITY UPLC H-Class PLUS System hyphenated with a quaternary solvent delivery pump (QSM), an auto-sampler manager (FTN), a column compartment (CM) and a photodiode array (PDA) detector (Waters Corporation) was employed. Stationary phase: Acquity BEH C18 column (100 × 2.1 mm i.d., 1.7 µm; Waters Corporation), column temperature: 30 °C. The mobile phase consisted of 0.3% acetic acid in water (eluent A) and acetonitrile (eluent B). The following gradient elution was applied at a flow rate of 0.3 mL/min: 0 min 12.0% B, 19.0 min 13.5% B, 25.5 min 75.0% B, 26.0 min 100.0% B, 28.0 min 100.0% B, 28.5 min 12.0% B.
The buffers modelling the gastric fluid (pH 1.2), the intestinal fluid (pH 6.8) and the blood and the tissues (pH 7.4) were prepared as follows. Buffer pH = 1.2: 1.0 g NaCl and 3.5 mL HCl dissolved in distilled water, final volume: 500.0 mL. Buffer pH = 6.8: 20.2 g Na2HPO4∙7H2O and 3.4 g NaH2PO4∙H2O dissolved in distilled water, final volume: 1000.0 mL, pH adjustment with 0.5 M NaOH or 0.5 M HCl. Buffer pH = 7.4: one PBS tablet dissolved in 200.0 mL distilled water. The stock solutions of compounds 1–4 were prepared with dimethyl sulfoxide (DMSO) at a concentration of 10.0 mM. The stock solutions were diluted 100-fold with each buffer separately to obtain the working solutions (297.0 μL buffer + 3.0 μL stock solution). All working solutions were filtered through Phenex-RC 15 mm, 0.2 μm syringe filters (Gen-Lab Ltd., Budapest, Hungary). The samples were incubated for 81 h at 37 °C; aliquots were taken for analysis every 9 h in accordance with the time required to quantify the analytes of interest in one set of samples. The total incubation time of 81 h was applied to obtain data for ten measurement points. The previously described UHPLC-DAD method was used to examine the changes in compound concentrations (see Section 3.4).
For the determination of pH stability, the initial AUC values were compared with the data after 9 and 81 h using paired-sample t test; significant difference was reported at p < 0.05. The effects of the pH were analysed through one-way analysis of variance (ANOVA) followed by Tukey’s post hoc HSD test (p < 0.05). All experiments were performed in triplicates (n = 3).
(§2) We used the following equations to calculate the first-order reaction rate constant (k) and the half-life (t1/2) indicating the time required to reduce the concentration of diarylheptanoids by 50% [29]:ln (ct/c0) = −k × t(1) t1/2 = −ln 0.5 × k^−1(2) where ct is the concentration of the diarylheptanoids at time t, c0 is the initial concentration, k is the reaction rate constant, t is the treatment time.

[2] = Storage stability in solutions and hornbeam bark extracts (UHPLC-DAD); type: physicochemical; details: for k / t1/2: storage 23 weeks
Experimental: as §1, §2
The chemical stability of the isolated compounds in solutions was examined at a concentration of 50 µg/mL in methanol and water (in the latter case using methanol as co-solvent, final composition: water-methanol 90:10, v/v). Furthermore, the methanol and ethyl acetate extracts of C. betulus bark (concentration 4 mg/mL) were also studied in order to assess the effects of the accompanying substances. The storage stability studies were performed at a neutral pH value. All solutions were filtered through Phenex-RC 15 mm, 0.2 μm syringe filters (Gen-Lab Ltd., Budapest, Hungary). The samples were prepared in triplicate and stored protected from light at 22 ± 2.0 °C, 5 ± 1.5 °C and −15 ± 2.0 °C for 23 weeks. Quantities of the analytes of interest were quantified at weeks 12 and 23 using the abovementioned UHPLC-DAD method (see Section 3.4).
The effects of the temperature and the medium (i.e., solvent and accompanying substances) were analysed through one-way analysis of variance (ANOVA) followed by Tukey’s post hoc HSD test (p < 0.05). To establish the kinetic parameters t1/2 and k, Equations (1) and (2) were applied, respectively.

[3] = design: method as in PMID 12350169; details: cited from earlier work
[4] = system: A375 human melanoma cell line; design: method as in PMID 28208804; details: cited from earlier work
[5] = system: lipid peroxidation in human plasma; design: method as in PMID 28520428; details: cited from earlier work
[6] = system: A549 human lung adenocarcinoma cells; design: method as in PMID 28520428, PMID 28941682; details: cited from earlier work
[7] = system: HeLa human cervical adenocarcinoma cells; design: method as in PMID 28520428, PMID 28941682; details: cited from earlier work
[8] = system: SK-Mel-28 human melanoma cell line; design: method as in PMID 28208804; details: cited from earlier work
[9] = 12 weeks, 5 °C, EE (ethyl acetate extract of bark)
[10] = 12 weeks, 5 °C, EM (methanol extract of bark)
[11] = 12 weeks, 5 °C, SA (aqueous solution)
[12] = 12 weeks, 5 °C, SM (methanol solution)
[13] = 12 weeks, 22 °C, EE (ethyl acetate extract of bark)
[14] = 12 weeks, 22 °C, EM (methanol extract of bark)
[15] = 12 weeks, 22 °C, SA (aqueous solution)
[16] = 12 weeks, 22 °C, SM (methanol solution)
[17] = 12 weeks, −15 °C, EE (ethyl acetate extract of bark)
[18] = 12 weeks, −15 °C, EM (methanol extract of bark)
[19] = 12 weeks, −15 °C, SA (aqueous solution)
[20] = 12 weeks, −15 °C, SM (methanol solution)
[21] = 23 weeks, 5 °C, EE (ethyl acetate extract of bark)
[22] = 23 weeks, 5 °C, EM (methanol extract of bark)
[23] = 23 weeks, 5 °C, SA (aqueous solution)
[24] = 23 weeks, 5 °C, SM (methanol solution)
[25] = 23 weeks, 22 °C, EE (ethyl acetate extract of bark)
[26] = 23 weeks, 22 °C, EM (methanol extract of bark)
[27] = 23 weeks, 22 °C, SA (aqueous solution)
[28] = 23 weeks, 22 °C, SM (methanol solution)
[29] = 23 weeks, −15 °C, EE (ethyl acetate extract of bark)
[30] = 23 weeks, −15 °C, EM (methanol extract of bark)
[31] = 23 weeks, −15 °C, SA (aqueous solution)
[32] = 23 weeks, −15 °C, SM (methanol solution)

O=C1C[C@H](O)[C@@H](O)Cc2ccc(O)c(c2)-c2cc(ccc2O)C[C@H]1O [Compound 1, carpinontriol A]
relative concentration compared to the initial value ([1]; 9 h, pH 1.2, 37 °C): 97.1 ± 8.9 ^a %
relative concentration compared to the initial value ([1]; 9 h, pH 6.8, 37 °C): 97.4 ± 1.5% and 97.4 ± 1.5 ^#a %
relative concentration compared to the initial value ([1]; 9 h, pH 7.4, 37 °C): 96.9 ± 1.2 ^a %
relative concentration compared to the initial value ([1]; 81 h, pH 1.2, 37 °C): 70.5 ± 2.6% and 70.5 ± 2.6 ^#b %
relative concentration compared to the initial value ([1]; 81 h, pH 6.8, 37 °C): 75.3 ± 3.0% and 75.3 ± 3.0 ^#b %
relative concentration compared to the initial value ([1]; 81 h, pH 7.4, 37 °C): 71.5 ± 5.2% and 71.5 ± 5.2 ^#b %
half-life at 100 µM ([1]; NaCl/HCl buffer, pH 1.2, 37 °C): 167 h
half-life at 100 µM ([1]; PBS, pH 7.4, 37 °C): 166 h
degradation rate constant k ([1]; pH 1.2, 37 °C): 0.00415 h⁻¹
degradation rate constant k ([1]; pH 6.8, 37 °C): 0.00365 h⁻¹
degradation rate constant k ([1]; pH 7.4, 37 °C): 0.00419 h⁻¹
half-life at 100 µM ([1]; sodium phosphate buffer, pH 6.8, 37 °C): 190 h
k ([2]; 5 °C, SA (aqueous solution)): 4.47 × 10^−3 Week^−1
t1/2 ([2]; 5 °C, SA (aqueous solution)): 147.48 Week
k ([2]; 5 °C, SM (methanol solution)): 1.40 × 10^−2 Week^−1
concentration as compared to the initial value [2, 9]: 104.6 ± 1.0 ^#bcg %
concentration as compared to the initial value [2, 10]: 110.1 ± 6.2 ^bc %
concentration as compared to the initial value [2, 11]: 91.4 ± 0.2 ^#def %
concentration as compared to the initial value [2, 12]: 90.8 ± 2.3 ^#def %
concentration as compared to the initial value [2, 13]: 110.9 ± 3.6 ^#bc %
concentration as compared to the initial value [2, 14]: 114.0 ± 2.2 ^#b %
concentration as compared to the initial value [2, 15]: 61.7 ± 5.7 ^#a %
concentration as compared to the initial value [2, 16]: 63.5 ± 8.7 ^#a %
concentration as compared to the initial value [2, 17]: 100.5 ± 0.5 ^ceg %
concentration as compared to the initial value [2, 18]: 108.7 ± 1.5 ^#bc %
concentration as compared to the initial value [2, 19]: 93.5 ± 0.4 ^#ef %
concentration as compared to the initial value [2, 20]: 94.0 ± 0.8 ^#efg %
k ([2]; 22 °C, SA (aqueous solution)): 5.97 × 10^−2 Week^−1
t1/2 ([2]; 22 °C, SA (aqueous solution)): 11.61 Week
k ([2]; 22 °C, SM (methanol solution)): 4.53 × 10^−2 Week^−1
t1/2 ([2]; 22 °C, SM (methanol solution)): 15.30 Week
concentration as compared to the initial value [2, 21]: 92.1 ± 1.3 ^#def %
concentration as compared to the initial value [2, 22]: 84.1 ± 1.1 ^#dfi %
concentration as compared to the initial value [2, 23]: 87.2 ± 0.4 ^#dfi %
concentration as compared to the initial value [2, 24]: 67.1 ± 7.5 ^#aj %
concentration as compared to the initial value [2, 25]: 81.5 ± 3.9 ^#di %
concentration as compared to the initial value [2, 26]: 77.7 ± 2.9 ^#ij %
concentration as compared to the initial value [2, 27]: 23.0 ± 0.5 ^#h %
concentration as compared to the initial value [2, 28]: 32.3 ± 6.3 ^#h %
concentration as compared to the initial value [2, 29]: 91.3 ± 4.2 ^#def %
concentration as compared to the initial value [2, 30]: 88.3 ± 3.4 ^#dfi %
concentration as compared to the initial value [2, 31]: 93.7 ± 0.3 ^#efg %
concentration as compared to the initial value [2, 32]: 88.9 ± 3.1 ^#dfi %
k ([2]; −15 °C, SA (aqueous solution)): 1.70 × 10^−3 Week^−1
t1/2 ([2]; −15 °C, SA (aqueous solution)): 407.73 Week
k ([2]; −15 °C, SM (methanol solution)): 3.60 × 10^−3 Week^−1
t1/2 ([2]; −15 °C, SM (methanol solution)): 192.54 Week
antioxidant activity (in words) [3]: only weak antioxidant activity

O=C1CCc2ccc(O)c(c2)-c2cc(ccc2O)C[C@H](O)[C@H](O)[C@H]1O [Compound 2, carpinontriol B]
cytotoxic concentration (not cytotoxic up to) [4]: > 1000 µM
lipid peroxidation induced by H2O2 (in words) [5]: inhibited lipid peroxidation
IC50 [6]: > 100 µM
IC50 [7]: > 100 µM
cytotoxic concentration (not cytotoxic up to) [8]: > 1000 µM
aqueous stability at pH 1.2, 6.8, 7.4 (in words) ([1]; 37 °C, up to 81 h): remained intact for the whole study at all pH values; also recorded: stable at all three studied biorelevant pH values
relative concentration compared to the initial value ([1]; 9 h, pH 1.2, 37 °C): 101.7 ± 4.2 ^a %
relative concentration compared to the initial value ([1]; 9 h, pH 6.8, 37 °C): 105.2 ± 3.9 ^a %
relative concentration compared to the initial value ([1]; 9 h, pH 7.4, 37 °C): 102.0 ± 0.9 ^a %
relative concentration compared to the initial value ([1]; 81 h, pH 1.2, 37 °C): 100.7 ± 5.1 ^a %
relative concentration compared to the initial value ([1]; 81 h, pH 6.8, 37 °C): 101.9 ± 6.4 ^a %
relative concentration compared to the initial value ([1]; 81 h, pH 7.4, 37 °C): 101.5 ± 1.1 ^a %
concentration as compared to the initial value [2, 9]: 99.5 ± 0.4 ^#a %
concentration as compared to the initial value [2, 10]: 99.9 ± 0.8 ^a %
concentration as compared to the initial value [2, 11]: 99.9 ± 0.4 ^a %
concentration as compared to the initial value [2, 12]: 99.4 ± 0.6 ^a %
concentration as compared to the initial value [2, 13]: 100.2 ± 0.7 ^a %
concentration as compared to the initial value [2, 14]: 101.1 ± 1.1 ^a %
concentration as compared to the initial value [2, 15]: 100.4 ± 1.1 ^a %
concentration as compared to the initial value [2, 16]: 99.7 ± 0.4 ^a %
concentration as compared to the initial value [2, 17]: 100.1 ± 0.7 ^a %
concentration as compared to the initial value [2, 18]: 99.8 ± 0.7 ^a %
concentration as compared to the initial value [2, 19]: 99.1 ± 1.3 ^a %
concentration as compared to the initial value [2, 20]: 99.1 ± 1.3 ^a %
concentration as compared to the initial value [2, 21]: 100.1 ± 0.4 ^a %
concentration as compared to the initial value [2, 22]: 99.2 ± 1.2 ^a %
concentration as compared to the initial value [2, 23]: 99.9 ± 0.5 ^a %
concentration as compared to the initial value [2, 24]: 99.2 ± 0.5 ^a %
concentration as compared to the initial value [2, 25]: 99.7 ± 0.5 ^a %
concentration as compared to the initial value [2, 26]: 99.7 ± 0.3 ^#a %
concentration as compared to the initial value [2, 27]: 99.8 ± 0.9 ^a %
concentration as compared to the initial value [2, 28]: 99.9 ± 0.6 ^a %
concentration as compared to the initial value [2, 29]: 99.8 ± 0.4 ^a %
concentration as compared to the initial value [2, 30]: 99.6 ± 0.7 ^a %
concentration as compared to the initial value [2, 31]: 99.1 ± 1.2 ^a %
concentration as compared to the initial value [2, 32]: 99.1 ± 1.2 ^a %
storage stability in methanol and aqueous solutions (in words) ([2]; SM and SA, −15, 5, 22 °C, weeks 12 and 23): stable; also recorded: good stability
antioxidant activity (in words) [3]: only weak antioxidant activity
